{
  "source": "paper PMC2374555",
  "about": "“Inhibition of aromatase activity and expression in MCF-7 cells by the chemopreventive retinoid N -(4-hydroxy-phenyl)-retinamide” (British Journal of Cancer, 2000)",
  "target": "T1, aromatase (Homo sapiens, UniProt P11511)",
  "T1 construct": "gene CYP19A1; microsomes isolated from JEG-3 human choriocarcinoma cells",
  "T1 sequence (P11511 1-503)": "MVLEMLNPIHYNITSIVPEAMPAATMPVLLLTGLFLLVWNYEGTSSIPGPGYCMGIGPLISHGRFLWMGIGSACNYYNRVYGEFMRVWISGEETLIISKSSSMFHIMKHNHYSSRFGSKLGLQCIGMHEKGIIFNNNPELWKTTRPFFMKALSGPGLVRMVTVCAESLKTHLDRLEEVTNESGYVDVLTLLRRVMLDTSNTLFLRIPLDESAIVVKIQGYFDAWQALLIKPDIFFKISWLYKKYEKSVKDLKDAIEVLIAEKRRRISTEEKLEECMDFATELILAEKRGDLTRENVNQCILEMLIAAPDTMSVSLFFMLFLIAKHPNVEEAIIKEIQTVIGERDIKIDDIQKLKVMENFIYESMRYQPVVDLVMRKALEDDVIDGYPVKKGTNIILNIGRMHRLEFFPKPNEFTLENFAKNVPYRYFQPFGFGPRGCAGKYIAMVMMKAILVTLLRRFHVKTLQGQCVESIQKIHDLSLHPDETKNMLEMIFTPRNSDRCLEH",
  "assay": "3H2O release aromatase assay in JEG-3 microsomes, Lineweaver-Burk kinetics; also intact MCF-7 cells",
  "type": "biochemical",
  "data": [
    {"smiles": "CC1=C(/C=C/C(C)=C/C=C/C(C)=C/C(=O)Nc2ccc(O)cc2)C(C)(C)CCC1", "note": "[4-HPR, N-(4-hydroxyphenyl)-retinamide]", "values": [
      {"measurement": "IC50", "value": 1000, "unit": "nM"}
    ]}
  ]
}
